Columns and labels:
[1] = target: T1, Prostaglandin G/H synthase 2 (Ovis aries, UniProt P79208); assay: COX Inhibitor Screening Assay; conditions: pH 8; 25 °C
T1 sequence (P79208 whole entry): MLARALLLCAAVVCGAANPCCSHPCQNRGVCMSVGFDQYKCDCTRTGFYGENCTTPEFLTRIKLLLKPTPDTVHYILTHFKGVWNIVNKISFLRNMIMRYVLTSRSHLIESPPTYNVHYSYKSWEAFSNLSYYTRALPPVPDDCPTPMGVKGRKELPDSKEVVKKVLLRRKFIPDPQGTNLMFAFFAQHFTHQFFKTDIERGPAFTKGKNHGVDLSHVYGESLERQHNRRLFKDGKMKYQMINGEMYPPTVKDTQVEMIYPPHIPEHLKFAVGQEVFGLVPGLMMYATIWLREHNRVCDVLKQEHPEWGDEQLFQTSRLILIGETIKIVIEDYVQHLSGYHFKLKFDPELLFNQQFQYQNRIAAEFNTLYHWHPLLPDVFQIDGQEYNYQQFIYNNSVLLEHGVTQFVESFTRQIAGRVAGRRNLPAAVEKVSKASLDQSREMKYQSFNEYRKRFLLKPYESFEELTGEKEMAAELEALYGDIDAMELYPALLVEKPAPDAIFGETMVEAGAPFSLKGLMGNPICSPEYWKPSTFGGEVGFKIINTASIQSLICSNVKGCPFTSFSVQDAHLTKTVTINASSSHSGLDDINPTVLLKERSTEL
Method: (§1) Dilute 3 mL of assay buffer concentrate with 27 mL of HPLC - grade water. This final assay buffer (0.1 M Tris-HCl, pH 8) should be used for dilution of heme and COX enzymes prior to assaying. This vial contains a solution of heme in dimethylsulphoxide. Dilute 88 μL of heme with 1.912 mL of diluted assay buffer prior to use. A vial contains a solution of ovine COX-1 and should be kept on ice when thawed. Dilute 200 μL of enzyme with 400 μL of diluted assay buffer and store on ice. A vial contains a solution of ovine COX-2 and should be kept on ice when thawed. Dilute 200 μL of enzyme with 400 μL of diluted assay buffer and store on ice. A vial contains a solution or arachidonic acid in ethanol. […] Use the prepared arachidonic acid solution within 30 min. A 20 μL aliquot will yield a final concentration of 100 μM in the wells. A vial contains 0.1 M potassium hydroxide (KOH). A vial contains a solution of TMPD. Background wells: add 160 μL of assay buffer, and 10 μL of heme to three wells. 100% Initial Activity wells: add 150 μL assay buffer, 10 μL of heme, and 10 μL of enzyme (either COX-1 or COX-2) to three wells. Inhibitor wells: add 150 μL of assay buffer, 10 μL of heme, and10 μL of enzyme (either COX-1 or COX-2) to three wells. Add 10 μL of inhibitor to the inhibitor wells and 10 μL of solvent (methanol, dimethylsulphoxide or ethanol) to the 100% Initial Activity wells and background wells, this process was repeated three times. Carefully shake the plate for a few seconds and incubate for five minutes at 25 °C. Add 20 μL of the colorimetric substratesolution to all the wells that you are using. Add 20 μL of arachidonic acid to all the wells you are using. Carefully shake the plate for few seconds and incubate for five minutes at 25 °C. Read the absorbance at 590 nm using a plate reader.

[2] = target: T2, Prostaglandin G/H synthase 1 (Ovis aries, UniProt P05979); assay: COX Inhibitor Screening Assay; conditions: pH 8; 25 °C
T2 sequence (P05979 whole entry): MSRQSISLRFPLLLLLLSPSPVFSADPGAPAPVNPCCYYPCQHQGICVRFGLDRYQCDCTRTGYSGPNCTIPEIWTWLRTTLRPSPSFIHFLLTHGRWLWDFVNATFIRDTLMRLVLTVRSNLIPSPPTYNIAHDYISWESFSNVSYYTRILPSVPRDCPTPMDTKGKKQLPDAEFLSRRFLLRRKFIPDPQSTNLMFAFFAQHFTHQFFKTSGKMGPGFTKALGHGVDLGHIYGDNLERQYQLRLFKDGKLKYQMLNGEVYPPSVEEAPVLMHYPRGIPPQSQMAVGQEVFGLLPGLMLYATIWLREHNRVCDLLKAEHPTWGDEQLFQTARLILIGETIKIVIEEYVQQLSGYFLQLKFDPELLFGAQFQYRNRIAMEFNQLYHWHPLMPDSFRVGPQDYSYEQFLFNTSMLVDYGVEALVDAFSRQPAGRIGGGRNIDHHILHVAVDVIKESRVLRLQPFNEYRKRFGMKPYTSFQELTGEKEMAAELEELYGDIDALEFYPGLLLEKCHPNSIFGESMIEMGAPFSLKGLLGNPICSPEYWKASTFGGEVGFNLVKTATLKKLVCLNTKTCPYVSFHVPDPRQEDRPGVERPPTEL
Method: as §1

Row | Compound | IC50 [1] | IC50 [2]
1 | O=C1OC(c2cccnc2)=N/C1=C\c1cccnc1 [2-(pyridin-3-yl)-4-(pyridin-3-ylmethylene)oxazol-5(4H)-one (IIIg)] | 75 nM | 340 nM
2 | O=C1NN(c2ccccc2)C(c2cccnc2)=N/C1=C/c1cccnc1 [2-Phenyl-3-(pyridin-3-yl)-5-(pyridin-3-ylmethylene)-1,2-dihydro-1,2,4-triazin-6(5H)-one (IVg)] | 14 nM | 84 nM
3 | O=C1OC(c2cccnc2)=N/C1=C\c1ccccc1O [4-(2-Hydroxybenzylidene)-2-(pyridin-3-yl)oxazol-5(4H)-one (IIIf)] | 85 nM | 440 nM
4 | CN(C)c1ccc(/C=C2/N=C(c3cccnc3)OC2=O)cc1 [4-(4-(Dimethylamino)benzylidene)-2-(pyridin-3-yl)oxazol-5(4H)-one (IIIe)] | 19 nM | 80 nM
5 | O=C1OC(c2cccnc2)=N/C1=C/c1ccc(Cl)cc1 [4-(4-Chlorobenzylidene)-2-(pyridin-3-yl)oxazol-5(4H)-one (IIIb)] | 106 nM | 450 nM
6 | O=C1OC(c2cccnc2)=N/C1=C/c1ccc(O)cc1 [4-(4-Hydroxybenzylidene)-2-(pyridin-3-yl)oxazol-5(4H)-one (IIIc)] | 24 nM | 270 nM
7 | COc1ccc(/C=C2/N=C(c3cccnc3)OC2=O)cc1 [4-(4-Methoxybenzylidene)-2-(pyridin-3-yl)oxazol-5(4H)-one (IIId)] | 59 nM | 210 nM
8 | O=C1OC(c2cccnc2)=N/C1=C\c1ccccc1 [4-Benzylidene-2-(pyridin-3-yl) oxazol-5(4H)-one (IIIa)] | 77 nM | 440 nM
9 | O=C1NN(c2ccccc2)C(c2cccnc2)=N/C1=C/c1ccccc1O [5-(2-Hydroxybenzylidene)-2-phenyl-3-(pyridin-3-yl)-1,2-dihydro-1,2,4-triazin-6(5H)-one (IVf)] | 17 nM | 85 nM
10 | CN(C)c1ccc(/C=C2/N=C(c3cccnc3)N(c3ccccc3)NC2=O)cc1 [5-(4-(Dimethylamino)benzylidene)-2-phenyl-3-(pyridin-3-yl)-1,2-dihydro-1,2,4-triazin-6(5H)-one (IVe)] | 19 nM | 116 nM
11 | O=C1NN(c2ccccc2)C(c2cccnc2)=N/C1=C/c1ccc(Cl)cc1 [5-(4-Chlorobenzylidene)-2-phenyl-3-(pyridin-3-yl)-1,2-dihydro-1,2,4-triazin-6(5H)-one (IVb)] | 34 nM | 160 nM
12 | O=C1NN(c2ccccc2)C(c2cccnc2)=N/C1=C/c1ccc(O)cc1 [5-(4-Hydroxybenzylidene)-2-phenyl-3-(pyridin-3-yl)-1,2-dihydro-1,2,4-triazin-6(5H)-one (IVc)] | 19 nM | 96 nM
13 | COc1ccc(/C=C2/N=C(c3cccnc3)N(c3ccccc3)NC2=O)cc1 [5-(4-Methoxybenzylidene)-2-phenyl-3-(pyridin-3-yl)-1,2-dihydro-1,2,4-triazin-6(5H)-one (IVd)] | – | 108 nM
14 | O=C1NN(c2ccccc2)C(c2cccnc2)=N/C1=C/c1ccccc1 [5-Benzylidene-2-phenyl-3-(pyridin-3-yl)-1,2-dihydro-1,2,4-triazin-6(5H)-one (IVa)] | 35 nM | 150 nM

Reference: BindingDB's records for doi:10.1016/j.bioorg.2017.04.012 (Cairo University, 2017)
